{"source": "paper PMC3746989", "about": "(ACS medicinal chemistry letters, 2013)", "key": {"[1]": {"assay": "In vivo mouse single-dose PK, brain and plasma exposure", "settings": "for brain exposure / drug levels in brain: mice, oral dosing"}, "ScN2a-cl3 cells": {"tested_on": "ScN2a-cl3 cells", "assay": "Cell viability / compound toxicity with fluorescent probe calcein-AM", "format": "cell-based, mouse"}, "[2]": {"tested_on": "PrP^Sc in RML prion-infected mouse neuroblastoma (ScN2a-cl3) cells", "format": "cell-based", "settings": "for antiprion activity: relative to the 4-bromophenyl amide 10"}, "[3]": {"settings": "mouse, oral 10 mg/kg, brain, relative to 21"}}, "data": [{"smiles": "CC(C)N1CCN(c2ccc(NC(=O)c3ccc(-c4ccccn4)cc3)nc2)CC1", "note": "[Compound 24]", "values": [{"measurement": "metabolic stability in hepatic microsomal preparations", "value": "excellent metabolic stability"}, {"measurement": "brain exposure / drug levels in brain", "setting": "[1]", "value": "excellent drug levels in the brains"}, {"measurement": "Calcein AM LD50", "setting": "ScN2a-cl3 cells", "value": ">10,000 nM"}]}, {"smiles": "CCN1CCN(c2ccc(NC(=O)c3ccc(-c4ccncc4)cc3)cc2)CC1", "note": "[Compound 22]", "values": [{"measurement": "Calcein AM LD50", "setting": "ScN2a-cl3 cells", "value": ">10,000 nM"}]}, {"smiles": "CC(C)N1CCN(c2ccc(NC(=O)c3ccc(-c4ccccc4)cc3)cc2)CC1", "note": "[Compound 17]", "values": [{"measurement": "metabolic stability in hepatic microsomal preparations", "value": "excellent metabolic stability"}, {"measurement": "brain exposure / drug levels in brain", "setting": "[1]", "value": "excellent drug levels in the brains"}, {"measurement": "Calcein AM LD50", "setting": "ScN2a-cl3 cells", "value": ">10,000 nM"}]}, {"smiles": "CN1CCN(c2ccc(NC(=O)c3cccc(Br)c3)cc2)CC1", "note": "[Compound 9]", "values": [{"measurement": "antiprion activity", "setting": "[2]", "value": "inactivity"}]}, {"smiles": "CC(C)N1CCN(c2ccc(NC(=O)c3ccc(-c4ccccn4)cc3)c(F)c2)CC1", "note": "[Compound 26]", "values": [{"measurement": "metabolic stability in hepatic microsomal preparations", "value": "excellent metabolic stability"}, {"measurement": "brain exposure / drug levels in brain", "setting": "[1]", "value": "excellent drug levels in the brains"}, {"measurement": "Calcein AM LD50", "setting": "ScN2a-cl3 cells", "value": ">10,000 nM"}]}, {"smiles": "CC(=O)c1ccc(NC(=O)c2ccc(-c3ccccc3)cc2)cc1", "note": "[Compound 14]", "values": [{"measurement": "fold improvement in potency, 14 versus 6", "setting": "[2]", "value": 10, "unit": "fold"}]}, {"smiles": "CC(C)N1CCN(c2ccc(NC(=O)c3ccc(-c4ccccn4)cc3)cn2)CC1", "note": "[Compound 25]", "values": [{"measurement": "Calcein AM LD50", "setting": "ScN2a-cl3 cells", "value": ">10,000 nM"}]}, {"smiles": "CC(C)N1CCN(c2ccc(NC(=O)c3ccc(-c4ccccn4)cc3)cc2)CC1", "note": "[Compound 23]", "values": [{"measurement": "brain exposure / drug levels in brain", "setting": "[1]", "value": "much lower brain exposure than either 16 or 20"}, {"measurement": "Calcein AM LD50", "setting": "ScN2a-cl3 cells", "value": ">10,000 nM"}]}, {"smiles": "CC(C)N1CCN(c2ccc(NC(=O)c3ccc(-c4ccccn4)cc3)cc2F)CC1", "note": "[Compound 27]", "values": [{"measurement": "metabolic stability in hepatic microsomal preparations", "value": "excellent metabolic stability"}, {"measurement": "brain exposure / drug levels in brain", "setting": "[1]", "value": "excellent drug levels in the brains"}, {"measurement": "Calcein AM LD50", "setting": "ScN2a-cl3 cells", "value": ">10,000 nM"}]}, {"smiles": "CCOc1cccc(C(=O)Nc2ccc(N3CCN(C)CC3)cc2)c1", "note": "[Compound 8]", "values": [{"measurement": "antiprion activity", "setting": "[2]", "value": "inactivity"}]}, {"smiles": "CCN1CCN(c2ccc(NC(=O)c3ccc(-c4ccccn4)cc3)cc2)CC1", "note": "[Compound 20]", "values": [{"measurement": "brain exposure / drug levels in brain", "setting": "[1]", "value": "excellent drug levels in the brains"}, {"measurement": "fold higher brain AUC than 21", "setting": "[1]; [3]", "value": "> 7", "unit": "fold"}, {"measurement": "fold higher brain Cmax than 21", "setting": "[1]; [3]", "value": "> 4", "unit": "fold"}, {"measurement": "Calcein AM LD50", "setting": "ScN2a-cl3 cells", "value": ">10,000 nM"}]}, {"smiles": "CN1CCN(c2ccc(NC(=O)c3ccc(-c4ccccc4)cc3)cc2)CC1", "note": "[Compound 15]", "values": [{"measurement": "Calcein AM LD50", "setting": "ScN2a-cl3 cells", "value": ">5000", "unit": "nM"}, {"measurement": "fold increase in antiprion potency over compound 7", "setting": "[2]; relative to original lead 7", "value": 4, "unit": "fold"}]}, {"smiles": "CCN1CCN(c2ccc(NC(=O)c3ccc(-c4cccnc4)cc3)cc2)CC1", "note": "[Compound 21]", "values": [{"measurement": "Calcein AM LD50", "setting": "ScN2a-cl3 cells", "value": ">10,000 nM"}]}]}
